Values quoted from earlier work as cited in patent US11298425B2, “Delivery of a chemotherapy agent across the blood-brain barrier” (ROWLESBIOMED, LLC, priority 2018, dated 2022).
Like-named read-outs stand apart in the source and are kept apart here.

Experiments:
[1] = pigs
[2] = mice
[3] = humans, measured in the tissues of human cadavers
[4] = rats

Compound	brain-to-blood ratio [1]	brain-to-blood ratio [2]	brain-to-blood ratio [3]	brain-to-blood ratio [4]
CCCCCc1cc(O)c2c(c1)OC(C)(C)[C@@H]1CCC(C)=C[C@@H]21 [THC, tetrahydrocannabinol]	2.6	1.6	3.0	2.0
CCCc1cc(O)c2c(c1)OC(C)(C)[C@@H]1CCC(C)=C[C@@H]21 [THCV, tetrahydrocannabivarin]		even higher than THC		
